Source: patent US8399510B2, “Method of activating NK cells” (University of South Florida, priority 2007, dated 2013)

What was measured:
SHIP−/− LAK cells = test: 4 hour 51Cr release cytolysis assay with SHIP−/− LAK cells; format: cell-based
Procedure: (§1) NK cells were magnetically enriched from whole splenocytes using the Miltenyi mouse NK cell enrichment kit and an Automac (Miltenyi) per the manufacturer's instructions. Magnetically enriched cells were plated at 2×10^6 cells/mL in the presence of 2000 units/mL human rIL-2 (Proleukin). Non-adherent cells were removed on day 2 and media replaced as necessary. On day 7 a standard 4 hour chromium release assay was performed. Briefly, target cells were loaded with 100 μCi of 51Cr per 1×10^6 cells for 60 minutes at 37° C. The target and lymphokine activate killer (LAK) 3 cells were then incubated together at 37° C. for 4 hours in the presence of inhibitors or media alone. Supernatants were collected and measured for radioactivity on a gamma counter (Perkin Elmer Wizard1470).
(§2) All experiments using sodium orthovanadate (NaOV) were performed with 100 μM activated NaOV. NaOV was activated by adjusting the pH of a 200 mM stock to pH 10.0 by the addition NaOH or HCl followed by boiling until the solution becomes colorless and then cooling to room temperature. This process is then repeated until the pH of the NaOV stabilizes at 10.0 (44). NaOV was added to the wells of the killing assay with the LAK cells 15 to 30 min prior to adding target cells at room temperature. NSC119910 was obtained from the Drug Synthesis and Chemistry Branch, Developmental Therapeutics Program, Division of Cancer Treatment and Diagnosis, NCI. The structure of NSC119910 was confirmed by proton NMR using a Varian Mercury-Plus, Oxford AS400 spectrometer. The 1H NMR spectrum was recorded at 400 MHz using DMSO-d6 as solvent and tetramethylsilane (TMS) as an internal standard. Chemical shift values are reported in parts per million (δ). […] 25 times this IC50 was established as the effective dose for NK cell based assays. NSC119910 was added immediately before the addition of target cells on ice. Both compounds were tested at their working concentration for the ability to kill and/or lyse the target cells without LAK cells being present.
Given the inappropriate degree of SHP1 recruitment to 2B4 in SHIP^−/− NK cells, the possibility of using chemical inhibitors to block its tyrosine phosphatase activity was explored to determine if this could restore killing of complex targets by SHIP-deficient NK cells. Standard four-hour 51Cr release assays were performed with SHIP^−/− (−/−) or WT (+/+) LAK cells, with a ratio of 30:1 and 3000 target cells for all conditions. NaOV (100 μM) was used first, a broadly acting tyrosine phosphatase inhibitor to counteract the effects of the SHP1 over-recruitment to 2B4, with a medium-only negative control. […] In fact, SHIP-deficient NK cytolysis of RMA parental targets exceeds that of WT LAK cells. This supernormal killing has been consistently observed against RMA targets in three separate studies with NaOV-treated SHIP^−/− LAK cells. This finding indicates phosphatase inhibition can restore the ability of SHIP^−/− NK cells to kill complex targets via NKG2D, while also expanding the capacity of SHIP-deficient NK cells to kill tumor cells in the absence of ligands for NKG2D.
Next, the ability of NSC119910 to restore killing in the SHIP^−/− NK cell was tested. The effective in vitro dose at which NSC119910 was able to restore SHIP^−/− cytotoxicity was determined in a dose titration experiment. Through this, 67.32 μM was identified as the effective dose (data not shown). This concentration of 67.32 μM of NSC119910 was used for all subsequent standard 4-hour 51Cr release assays, performed with SHIP^−/− (^−/−) or WT (^+/+) LAK cells and using a ratio of 30:1 and 3000 target cells in the presence of 67.32 μM NCI119910 or media alone (−). […] The experiments were repeated, using M157+ BaF3 transfectants were used as targets (FIG. 5D). SHIP^−/− (^−−) or WT (^++) cells were incubated with 67.32 μM NSC119910 (119910) or media alone (CNT) for 4 hours. The cells were then stained for NK1.1, TCR-β and NKG2D and analyzed for NKG2D expression. […]

WT LAK cells = test: 4 hour 51Cr release cytolysis assay with WT LAK cells; format: cell-based, mouse
Procedure: as §1, §2
Given the inappropriate degree of SHP1 recruitment to 2B4 in SHIP^−/− NK cells, the possibility of using chemical inhibitors to block its tyrosine phosphatase activity was explored to determine if this could restore killing of complex targets by SHIP-deficient NK cells. Standard four-hour 51Cr release assays were performed with SHIP^−/− (−/−) or WT (+/+) LAK cells, with a ratio of 30:1 and 3000 target cells for all conditions. […]
Next, the ability of NSC119910 to restore killing in the SHIP^−/− NK cell was tested. The effective in vitro dose at which NSC119910 was able to restore SHIP^−/− cytotoxicity was determined in a dose titration experiment. […] The cells were then stained for NK1.1, TCR-β and NKG2D and analyzed for NKG2D expression. […]

SHP2 = target: T1, SHP2 (Homo sapiens, UniProt Q06124); test: PTP inhibition assay (DiFMUP substrate), SHP2; format: biochemical; conditions: in vitro phosphatase activity, versus PTP1b
T1 sequence (Q06124 1-593): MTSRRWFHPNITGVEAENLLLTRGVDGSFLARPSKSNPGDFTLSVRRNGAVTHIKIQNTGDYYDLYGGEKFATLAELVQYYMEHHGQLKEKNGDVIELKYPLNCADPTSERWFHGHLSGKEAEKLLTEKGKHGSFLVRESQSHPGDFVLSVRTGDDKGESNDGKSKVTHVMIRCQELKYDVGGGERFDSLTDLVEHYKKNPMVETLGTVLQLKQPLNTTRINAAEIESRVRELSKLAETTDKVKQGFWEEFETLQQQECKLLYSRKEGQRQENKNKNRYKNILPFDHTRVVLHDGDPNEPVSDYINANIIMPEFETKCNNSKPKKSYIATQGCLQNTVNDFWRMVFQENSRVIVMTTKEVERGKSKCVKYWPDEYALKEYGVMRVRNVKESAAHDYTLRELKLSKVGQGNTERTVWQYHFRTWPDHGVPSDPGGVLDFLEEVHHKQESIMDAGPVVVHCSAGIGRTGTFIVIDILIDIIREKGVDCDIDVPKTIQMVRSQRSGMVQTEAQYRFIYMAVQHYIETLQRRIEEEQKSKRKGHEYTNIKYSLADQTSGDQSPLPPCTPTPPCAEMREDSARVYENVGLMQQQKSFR
Procedure: (§3) PTP activity was measured using the fluorogenic 6,8-difluoro-4-methylumbelliferyl phosphate (DiFMUP; Invitrogen, Carlsbad, Calif.) as the substrate. Each reaction contained 25 mM HEPES, 50 mM NaCl, 0.05% Triton, 1 mM dithiothreitol, 20 μM DiFMUP, 10 nM Microcystin LR, 20 nM GST-PTP, and 10 μl of test compound or dimethyl sulfoxide (solvent) in a total reaction volume of 100 μl in black 96-well plates. Reaction was initiated by addition of DiFMUP, and the incubation time was 30 min at room temperature. DiFMUP fluorescence signal was measured at an excitation of 355 nm and an emission of 460 nm with a plate reader (Victor2 1420; PerkinElmer Wallac, Gaithersburg, Md.). IC50 was defined as the concentration of an inhibitor that caused a 50% decrease in the PTP activity. For IC50 determination, eight concentrations of NSC119910 at one-third dilution (˜0.5 log) were tested. The ranges of NSC119910 concentrations used in each PTP assay were determined from preliminary trials. Each experiment was performed either in triplicate or duplicate, and IC50 data were derived from at least two independent experiments. The curve-fitting program Prism 4 (GraphPad Software, San Diego, Calif.) was used to calculate IC50 values.

NKG2D = NKG2D expression on LAK cells (staining for NK1.1, TCR-β, NKG2D); format: cell-based, mouse; conditions: 67.32 μM NSC119910, 4 hours; SHIP−/− or WT cells
Procedure: Next, the ability of NSC119910 to restore killing in the SHIP^−/− NK cell was tested. The effective in vitro dose at which NSC119910 was able to restore SHIP^−/− cytotoxicity was determined in a dose titration experiment. Through this, 67.32 μM was identified as the effective dose (data not shown). This concentration of 67.32 μM of NSC119910 was used for all subsequent standard 4-hour 51Cr release assays, performed with SHIP^−/− (^−/−) or WT (^+/+) LAK cells and using a ratio of 30:1 and 3000 target cells in the presence of 67.32 μM NCI119910 or media alone (−). […] The experiments were repeated, using M157+ BaF3 transfectants were used as targets (FIG. 5D). SHIP^−/− (^−−) or WT (^++) cells were incubated with 67.32 μM NSC119910 (119910) or media alone (CNT) for 4 hours. The cells were then stained for NK1.1, TCR-β and NKG2D and analyzed for NKG2D expression. The addition of NSC119910 to LAK cells had no effect on the expression levels of NKG2D (FIG. 5E). The experiments were also performed with m157^+ BaF3 targets. […] Although the increase is not as dramatic as observed with NKG2D mediated cytolysis, this increase has been observed consistently in multiple cytolysis assays with the m157^+ BaF3 targets. […]

SHP1 = SHP1 (Homo sapiens, UniProt P29350); test: PTP inhibition assay (DiFMUP substrate), SHP1; format: biochemical
Procedure: as §3

[1] = 100 μM NaOV, ratio 30:1, 3000 target cells
[2] = 67.32 μM NSC119910, ratio 30:1, 3000 target cells

Chain of SHP1 (P29350 whole entry): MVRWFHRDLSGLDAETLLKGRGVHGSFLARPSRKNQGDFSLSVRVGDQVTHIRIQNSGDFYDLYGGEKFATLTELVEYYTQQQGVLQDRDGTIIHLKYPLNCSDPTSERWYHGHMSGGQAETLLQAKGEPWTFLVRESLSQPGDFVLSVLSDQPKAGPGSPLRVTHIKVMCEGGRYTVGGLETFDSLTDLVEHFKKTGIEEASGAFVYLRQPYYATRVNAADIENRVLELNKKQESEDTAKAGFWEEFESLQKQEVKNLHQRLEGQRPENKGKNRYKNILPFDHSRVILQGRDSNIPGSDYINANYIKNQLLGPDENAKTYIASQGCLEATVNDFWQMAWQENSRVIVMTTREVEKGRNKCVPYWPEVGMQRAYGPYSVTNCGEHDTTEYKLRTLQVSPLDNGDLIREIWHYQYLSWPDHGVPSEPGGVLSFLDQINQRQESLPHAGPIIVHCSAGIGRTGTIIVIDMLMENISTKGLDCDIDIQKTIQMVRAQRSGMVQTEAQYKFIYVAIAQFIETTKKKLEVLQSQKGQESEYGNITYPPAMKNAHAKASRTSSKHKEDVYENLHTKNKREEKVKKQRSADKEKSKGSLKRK

Compound	killing of m157+ BaF3 targets by SHIP−/− NK cells (SHIP−/− LAK cells; 100 μM NaOV)	killing of parental BaF3 targets by SHIP−/− NK cells (SHIP−/− LAK cells; 100 μM NaOV)	killing of RMA parental targets by SHIP−/− LAK cells (SHIP−/− LAK cells; [1])	killing of Rae1+ RMA targets by SHIP−/− LAK cells (SHIP−/− LAK cells; [1])	killing of RMA or RMA-Rae1+ targets by WT LAK cells (WT LAK cells; [1])	selectivity to SHP2 over PTP1b (SHP2)	killing of m157+ BaF3 targets by SHIP−/− NK cells (SHIP−/− LAK cells; 67.32 μM NSC119910)	killing of Rae1+ RMA targets by SHIP−/− NK cells (SHIP−/− LAK cells; [2])	killing of parental RMA targets by SHIP−/− NK cells (SHIP−/− LAK cells; [2])	effective in vitro dose restoring SHIP−/− cytotoxicity (SHIP−/− LAK cells; dose titration experiment (data not shown))	expression levels of NKG2D on LAK cells (NKG2D)	cytolytic activity of WT NK cells against Rae1+ targets (WT LAK cells; [2])	killing of m157+ cells by WT LAK cells (WT LAK cells; NSC119910, compared with the increase seen with NaOV)	killing of RMA cells by WT NK cells (WT LAK cells; in the presence of NSC119910)	selectivity to SHP1 over PTP1b (SHP1; in vitro phosphatase activity, versus PTP1b)	IC50 (SHP1; purified SHP1, read-out: cell free, in vitro IC50 using purified SHP1)
[Na+].[Na+].[Na+].[O]=[V]([O-])([O-])[O-] [NaOV, Sodium orthovanadate, reference compound]	able to increase the capacity	able to increase the capacity	increased the capacity	restore cellular ability to mediate efficient killing	increased killing by WT LAK cells was not seen											
O=C(O)C1CCCCC1c1c2ccc(=O)c(O)c-2oc2c(O)c(O)ccc12 (stereo not shown) [NSC119910]						approximately 100 fold	increased	significantly restored killing	significantly restored killing	67.32 µM	no effect	no effect	the same increase of killing of m157^+ cells by WT LAK cells was not seen	increase	approximately 10 fold	2700 nM
